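How tested: cells in 96-well plates exposed to compound for 48 hours at five concentrations. The concentration for full growth arrest is given as TGI.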
Experiments:
Test in all cases: NCI anticancer screen, dose series, 48 h
[1] = system: OVCAR-4 ovarian
[2] = system: NCI-H460 lung
[3] = system: SK-OV-3 ovarian
[4] = system: NCI-H23 lung
[5] = system: HOP-62 NSCLC
[6] = system: OVCAR-3 ovarian
[7] = system: SK-MEL-28 melanoma
[8] = system: SK-MEL-2 melanoma
[9] = system: T-47D breast
[10] = system: SN12C renal
[11] = system: IGROV1 ovarian
[12] = system: U251 CNS
[13] = system: A498 renal
[14] = system: SK-MEL-5 melanoma
[15] = system: K-562 leukemia
[16] = system: OVCAR-5 ovarian
[17] = system: PC-3 prostate
[18] = system: MALME-3M melanoma
[19] = system: SF-295 CNS
[20] = system: DU-145 prostate
[21] = system: HT29 colon
[22] = system: LOX IMVI melanoma
[23] = system: MOLT-4 leukemia
[24] = system: KM12 colon
[25] = system: MDA-MB-435
[26] = system: M14 melanoma
[27] = system: SR leukemia
[28] = system: NCI-H226 lung
[29] = system: HCT-116 colon
[30] = system: TK-10 renal
[31] = system: UACC-62 melanoma
[32] = system: NCI/ADR-RES ovarian
[33] = system: HS 578T breast
[34] = system: HCC-2998 colon
[35] = system: SW-620 colon
[36] = system: MDA-N
[37] = system: SNB-19 CNS
[38] = system: RPMI-8226 leukemia
[39] = system: COLO 205 colon
[40] = system: MDA-MB-231 breast
[41] = system: HCT-15 colon
[42] = system: CAKI-1 renal
[43] = system: UO-31 renal
[44] = system: MCF7 breast
[45] = system: SNB-75 CNS
[46] = system: HOP-92 NSCLC
[47] = system: UACC-257 melanoma
[48] = system: RXF 393 renal
[49] = system: BT-549 breast
[50] = system: OVCAR-8 ovarian
[51] = system: CCRF-CEM leukemia
[52] = system: SF-268 CNS
[53] = system: EKVX NSCLC
[54] = system: ACHN renal
[55] = system: 786-0 renal
[56] = system: NCI-H522 lung
[57] = system: A549 NSCLC
[58] = system: HL-60(TB) leukemia
[59] = system: SF-539 CNS

## Nc1nccc2c1ncn2[C@H]1C[C@H](O)[C@@H](CO)O1
[1]
  TGI: > 100 µM
[2]
  TGI: > 100 µM
[3]
  TGI: > 100 µM
[4]
  TGI: > 100 µM
[5]
  TGI: > 100 µM
[6]
  TGI: > 100 µM
[7]
  TGI: > 100 µM
[8]
  TGI: > 100 µM
[9]
  TGI: > 100 µM
[10]
  TGI: > 100 µM
[11]
  TGI: > 100 µM
[12]
  TGI: > 100 µM
[13]
  TGI: > 100 µM
[14]
  TGI: > 100 µM
[15]
  TGI: > 100 µM
[16]
  TGI: > 100 µM
[17]
  TGI: > 100 µM
[18]
  TGI: > 100 µM
[19]
  TGI: > 100 µM
[20]
  TGI: > 100 µM
[21]
  TGI: > 100 µM
[22]
  TGI: > 100 µM
[23]
  TGI: > 100 µM
[24]
  TGI: > 100 µM
[25]
  TGI: > 100 µM
[26]
  TGI: > 100 µM
[27]
  TGI: > 100 µM
[28]
  TGI: > 100 µM
[29]
  TGI: > 100 µM
[30]
  TGI: > 100 µM
[31]
  TGI: > 100 µM
[32]
  TGI: > 100 µM
[33]
  TGI: > 100 µM
[34]
  TGI: > 100 µM
[35]
  TGI: > 100 µM
[36]
  TGI: > 100 µM
[37]
  TGI: > 100 µM
[38]
  TGI: > 100 µM
[39]
  TGI: > 100 µM
[40]
  TGI: > 100 µM
[41]
  TGI: > 100 µM
[42]
  TGI: > 100 µM
[43]
  TGI: > 100 µM
[44]
  TGI: > 100 µM
[45]
  TGI: > 100 µM
[46]
  TGI: > 100 µM
[47]
  TGI: > 100 µM
[48]
  TGI: > 100 µM
[49]
  TGI: > 100 µM
[50]
  TGI: > 100 µM
[51]
  TGI: > 100 µM

## COc1cc(C=C(c2ccc(N(C)C)cc2)c2ccc(N(C)C)cc2)c2ccccc2c1OC
[1]
  TGI: > 100 µM
[52]
  TGI: > 100 µM
[2]
  TGI: > 100 µM
[3]
  TGI: > 100 µM
[4]
  TGI: > 100 µM
[5]
  TGI: > 100 µM
[53]
  TGI: > 100 µM
[6]
  TGI: 74 µM
[7]
  TGI: > 100 µM
[8]
  TGI: > 100 µM
[54]
  TGI: > 100 µM
[9]
  TGI: > 100 µM
[10]
  TGI: > 100 µM
[11]
  TGI: > 100 µM
[12]
  TGI: > 100 µM
[14]
  TGI: > 100 µM
[15]
  TGI: > 100 µM
[16]
  TGI: > 100 µM
[17]
  TGI: > 100 µM
[55]
  TGI: > 100 µM
[18]
  TGI: > 100 µM
[19]
  TGI: > 100 µM
[20]
  TGI: > 100 µM
[21]
  TGI: > 100 µM
[22]
  TGI: > 100 µM
[23]
  TGI: > 100 µM
[24]
  TGI: > 100 µM
[25]
  TGI: > 100 µM
[26]
  TGI: > 100 µM
[27]
  TGI: > 100 µM
[28]
  TGI: > 100 µM
[29]
  TGI: > 100 µM
[30]
  TGI: > 100 µM
[31]
  TGI: > 100 µM
[32]
  TGI: > 100 µM
[33]
  TGI: > 100 µM
[34]
  TGI: > 100 µM
[56]
  TGI: > 100 µM
[57]
  TGI: > 100 µM
[36]
  TGI: 40.7 µM
[37]
  TGI: > 100 µM
[38]
  TGI: > 100 µM
[39]
  TGI: > 100 µM
[40]
  TGI: > 100 µM
[41]
  TGI: > 100 µM
[42]
  TGI: > 100 µM
[58]
  TGI: > 100 µM
[43]
  TGI: > 100 µM
[44]
  TGI: > 100 µM
[45]
  TGI: > 100 µM
[46]
  TGI: > 100 µM
[47]
  TGI: > 100 µM
[48]
  TGI: > 100 µM
[49]
  TGI: > 100 µM
[50]
  TGI: > 100 µM
[51]
  TGI: > 100 µM

## O=C1C=CC(O)(C#CCO)C=C1
[1]
  TGI: 25.9 µM
[52]
  TGI: 34.1 µM
[2]
  TGI: 48.8 µM
[3]
  TGI: > 100 µM
[4]
  TGI: 34.5 µM
[5]
  TGI: 71.7 µM
[53]
  TGI: 40.3 µM
[6]
  TGI: 31 µM
[7]
  TGI: 25.5 µM
[8]
  TGI: 33.2 µM
[54]
  TGI: 26.6 µM
[9]
  TGI: 41.6 µM
[10]
  TGI: 30.6 µM
[11]
  TGI: 25.6 µM
[12]
  TGI: 23.8 µM
[13]
  TGI: 46 µM
[14]
  TGI: > 100 µM
[15]
  TGI: > 100 µM
[16]
  TGI: 26.9 µM
[17]
  TGI: 31.8 µM
[55]
  TGI: > 42 µM
[19]
  TGI: > 100 µM
[20]
  TGI: 31.6 µM
[21]
  TGI: 29.7 µM
[59]
  TGI: 30.8 µM
[22]
  TGI: 23.3 µM
[23]
  TGI: > 100 µM
[24]
  TGI: 32.6 µM
[25]
  TGI: 26.9 µM
[26]
  TGI: 44 µM
[27]
  TGI: > 100 µM
[28]
  TGI: 28.1 µM
[29]
  TGI: > 53.9 µM
[30]
  TGI: 25.8 µM
[31]
  TGI: 29.3 µM
[32]
  TGI: 30.3 µM
[33]
  TGI: > 76.5 µM
[34]
  TGI: 31.3 µM
[56]
  TGI: 4.16 µM
[57]
  TGI: > 60.2 µM
[35]
  TGI: 15.3 µM
[36]
  TGI: 23 µM
[37]
  TGI: > 56.8 µM
[38]
  TGI: 22 µM
[39]
  TGI: > 50.2 µM
[40]
  TGI: 33.7 µM
[41]
  TGI: 10.1 µM
[42]
  TGI: 10.8 µM
[58]
  TGI: 15.8 µM
[43]
  TGI: 32.3 µM
[44]
  TGI: 18.5 µM
[45]
  TGI: 37.4 µM
[46]
  TGI: 5.8 µM
[47]
  TGI: 27.7 µM
[48]
  TGI: 10.8 µM
[49]
  TGI: 26.7 µM
[50]
  TGI: 39.7 µM
[51]
  TGI: 62.2 µM

— PubChem BioAssay (NCI)
